Structures can show the parent of a compound that is named as a salt.
What follows are compounds tested on MV4-11 cells (assay: MV4-11 Cytotoxicity Assay). Settings: 72 hr, CCK-8; read-out: MV4-11 cytotoxicity.
Format: cell-based, human

How did the IC50 turn out when `CCn1c(=O)/c(=C2\Sc3ccccc3N2C)s/c1=C\c1cccc[n+]1CCNC(=O)C[C@@H]1N=C(c2ccc(Cl)cc2)c2c(sc(C)c2C)-n2c(C)nnc21` [Compound 8] was run?
Its IC50 is greater than 1000 nM.

Same assay, conditions: Homo sapiens, MV4-11, 72 h, read-out: MV4-11 cytotoxicity

For `CCc1cc(-c2nnc(C(=O)NCC(F)(F)F)n2-c2ccc(CN3CCN(CC4CCN(C(=O)C[C@@H]5N=C(c6ccc(Cl)cc6)c6c(sc(C)c6C)-n6c(C)nnc65)CC4)CC3)cc2)c(O)cc1O` [Compound 14, 4-(4-((4-((1-(2-((6S)-4-(4-chlorophenyl)-2,3,9-trimethyl-6H-thieno[3,2-f][1,2,4]triazolo[4,3-a][1,4]diazepin-6-yl)acetyl)piperidin-4-yl)methyl)piperazin-1-yl)methyl)phenyl)-5-(5-ethyl-2,4-dihydroxyphenyl)-N-(2,2,2-trifluoroethyl)-4H-1,2,4-triazole-3-carboxamide, trifluoroacetic acid], which IC50 is on record?
Its IC50 is less than 100 nM.

Same assay, conditions: Homo sapiens, MV4-11; 72 hr, CCK-8; read-out: MV4-11 cytotoxicity

Which IC50 does the source give for `Cc1sc2c(c1C)C(c1ccc(Cl)cc1)=NC(CC(=O)N[C@H](C)c1ccc(CN3CCN(Cc4ccc(-n5c(O)nnc5-c5cc(C(C)C)c(O)cc5O)cc4)CC3)cc1)c1nnc(C)n1-2` (stereo in doubt) [Compound 70, 2-((6S)-4-(4-chlorophenyl)-2,3,9-trimethyl-6H-thieno[3,2-f][1,2,4]triazolo[4,3-a][1,4]diazepin-6-yl)-N—((R)-1-(4-((4-(4-(3-(2,4-dihydroxy-5-isopropylphenyl)-5-hydroxy-4H-1,2,4-triazol-4-yl)benzyl)piperazin-1-yl)methyl)phenyl)ethyl)acetamide, trifluoroacetic acid] here?
Its IC50 is less than 100 nM.

`Cc1sc2c(c1C)C(c1ccc(Cl)cc1)=NC(CC(=O)N1CCC(Cc3ccc(CN(C)Cc4ccc(-n5c(C(=O)NCC(F)(F)F)nnc5-c5cc(C(C)C)c(O)cc5O)cc4)cc3)CC1)c1nnc(C)n1-2` (stereo in doubt) [Compound 84, (S)-4-(4-(((4-((1-(2-(4-(4-chlorophenyl)-2,3,9-trimethyl-6H-thieno[3,2-f][1,2,4]triazolo[4,3-a][1,4]diazepin-6-yl)acetyl)piperidin-4-yl)methyl)benzyl)(methyl)amino)methyl)phenyl)-5-(2,4-dihydroxy-5-isopropylphenyl)-N-(2,2,2-trifluoroethyl)-4H-1,2,4-triazole-3-carboxamide, trifluoroacetic acid] was tested. Which IC50 did it give?
Its IC50 is less than 100 nM.

With `CCc1cc(-c2nnc(O)n2-c2ccc(CN3CCN(CC4CCN(CC[C@@H]5N=C(c6ccc(Cl)cc6)c6c(sc(C)c6C)-n6c(C)nnc65)CC4)CC3)cc2)c(O)cc1O` [Compound 2, 4-(4-(4-((4-((1-(2-((6S)-4-(4-chlorophenyl)-2,3,9-trimethyl-6H-thieno[3,2-f][1,2,4]triazolo[4,3-a][1,4]diazepin-6-yl)ethyl)piperidin-4-yl)methyl)piperazin-1-yl)methyl)phenyl)-5-hydroxy-4H-1,2,4-triazol-3-yl)-6-ethylbenzene-1,3-diol, trifluoroacetic acid] as the compound, how does the IC50 read?
The IC50 was 100 to 1000 nM.

Which IC50 does the source give for `Cc1sc2c(c1C)C(c1ccc(Cl)cc1)=N[C@@H](CC(=O)N1CCC(Cc3ccc(-n4c(O)nnc4-c4cc(C(C)C)c(O)cc4O)cc3)CC1)c1nnc(C)n1-2` [Compound 3, 2-((6S)-4-(4-chlorophenyl)-2,3,9-trimethyl-6H-thieno[3,2-f][1,2,4]triazolo[4,3-a][1,4]diazepin-6-yl)-1-(4-(4-(3-(2,4-dihydroxy-5-isopropylphenyl)-5-hydroxy-4H-1,2,4-triazol-4-yl)benzyl)piperidin-1-yl)ethanone, trifluoroacetic acid] here?
Its IC50 is less than 100 nM.

How did the IC50 turn out when `Cc1sc2c(c1C)C(c1ccc(Cl)cc1)=N[C@@H](CC(=O)N1CCC(CN3CCN(Cc4ccc(-n5c(O)nnc5-c5ccc(O)cc5O)cc4)CC3)CC1)c1nnc(C)n1-2` [Compound 4, 2-((6S)-4-(4-chlorophenyl)-2,3,9-trimethyl-6H-thieno[3,2-f][1,2,4]triazolo[4,3-a][1,4]diazepin-6-yl)-1-(4-((4-(4-(3-(2,4-dihydroxyphenyl)-5-hydroxy-4H-1,2,4-triazol-4-yl)benzyl)piperazin-1-yl)methyl)piperidin-1-yl)ethanone, trifluoroacetic acid] was run?
Its IC50 is 100 to 1000 nM.

Which IC50 does the source give for `CCc1cc(-c2nnc(O)n2-c2ccc(CN3CCN(CC4CCN(C(=O)C[C@@H]5N=C(c6ccc(Cl)cc6)c6c(sc(C)c6C)-n6c(C)nnc65)CC4)CC3)cc2)c(O)cc1O` [Compound 10, (S)-2-(4-(4-chlorophenyl)-2,3,9-trimethyl-6H-thieno[3,2-f][1,2,4]triazolo[4,3-a][1,4]diazepin-6-yl)-1-(4-((4-(4-(3-(5-ethyl-2,4-dihydroxyphenyl)-5-hydroxy-4H-1,2,4-triazol-4-yl)benzyl)piperazin-1-yl)methyl)piperidin-1-yl)ethan-1-one hydrochloride] here?
The IC50 was less than 100 nM.

Which IC50 does the source give for `CCCc1cc(-c2nnc(O)n2-c2ccc(CN3CCN(CC4CCN(C(=O)C[C@@H]5N=C(c6ccc(Cl)cc6)c6c(sc(C)c6C)-n6c(C)nnc65)CC4)CC3)cc2)c(O)cc1O` [Compound 11, (S)-2-(4-(4-chlorophenyl)-2,3,9-trimethyl-6H-thieno[3,2-f][1,2,4]triazolo[4,3-a][1,4]diazepin-6-yl)-1-(4-((4-(4-(3-(2,4-dihydroxy-5-propylphenyl)-5-hydroxy-4H-1,2,4-triazol-4-yl)benzyl)piperazin-1-yl)methyl)piperidin-1-yl)ethan-1-one, trifluoroacetic acid] here?
Its IC50 is less than 100 nM.

With `Cc1sc2c(c1C)C(c1ccc(Cl)cc1)=N[C@@H](CC(=O)N1CCC(CN3CCN(Cc4ccc(-n5c(S)nnc5-c5cc(C(C)C)c(O)cc5O)cc4)CC3)CC1)c1nnc(C)n1-2` [Compound 12, 2-((6S)-4-(4-chlorophenyl)-2,3,9-trimethyl-6H-thieno[3,2-f][1,2,4]triazolo[4,3-a][1,4]diazepin-6-yl)-1-(4-((4-(4-(3-(2,4-dihydroxy-5-isopropylphenyl)-5-mercapto-4H-1,2,4-triazol-4-yl)benzyl)piperazin-1-yl)methyl)piperidin-1-yl)ethanone, trifluoroacetic acid] as the compound, how does the IC50 read?
The IC50 was less than 100 nM.

Which IC50 does the source give for `Cc1sc2c(c1C)C(c1ccc(Cl)cc1)=N[C@@H](CC(=O)N1CCC(CN3CCN(Cc4ccc(-n5c(C(=O)NCC(F)(F)F)nnc5-c5cc(C(C)C)c(O)cc5O)cc4)CC3)CC1)c1nnc(C)n1-2` [Compound 13, 4-(4-((4-((1-(2-((6S)-4-(4-chlorophenyl)-2,3,9-trimethyl-6H-thieno[3,2-f][1,2,4]triazolo[4,3-a][1,4]diazepin-6-yl)acetyl)piperidin-4-yl)methyl)piperazin-1-yl)methyl)phenyl)-5-(2,4-dihydroxy-5-isopropylphenyl)-N-(2,2,2-trifluoroethyl)-4H-1,2,4-triazole-3-carboxamide] here?
Its IC50 is less than 100 nM.

`Cc1cc(-c2nnc(C(=O)NCC(F)(F)F)n2-c2ccc(CN3CCN(CC4CCN(C(=O)C[C@@H]5N=C(c6ccc(Cl)cc6)c6c(sc(C)c6C)-n6c(C)nnc65)CC4)CC3)cc2)c(O)cc1O` [Compound 15, 4-(4-((4-((1-(2-((6S)-4-(4-chlorophenyl)-2,3,9-trimethyl-6H-thieno[3,2-f][1,2,4]triazolo[4,3-a][1,4]diazepin-6-yl)acetyl)piperidin-4-yl)methyl)piperazin-1-yl)methyl)phenyl)-5-(2,4-dihydroxy-5-methylphenyl)-N-(2,2,2-trifluoroethyl)-4H-1,2,4-triazole-3-carboxamide, trifluoroacetic acid] was tested. Which IC50 did it give?
The IC50 was less than 100 nM.

— patent US12540143B2, “Methods and compositions for targeted protein degradation” (Ranok Therapeutics (Hangzhou) Co. Ltd., priority 2019, dated 2026)
